{"source": "patent US20060275339A1", "about": "“Use of antiseptic active principles in pmma bone cements” (Biomet Deutschland, priority 2003, published 2006)", "system": "germs", "experiment": "Prevention of colonisation of the PMMA bone cement surface with germs (FIGS. 1a and 1b)", "format": "cell-based", "conditions": "0.155% by weight admixed with PMMA bone cement (PALAMED plain); compared with admixing of 0.86% by weight of gentamicin", "data": [{"substance": "polyhexamethylenebiguanide", "values": [{"measurement": "biological efficacy in preventing colonisation of the cement surface with germs", "value": "same (or higher) biological efficacy"}]}]}
